Measurements as given in patent US8410139B2, “Prodrugs of a piperidinyl derivative as modulators of chemokine receptor activity” (Bristol-Myers Squibb Company, priority 2009, dated 2013).
≈ marks a conversion by molar mass, not a printed value. Read-outs that look alike come from different tables or passages of the source.

How the values were obtained:
[1] = Solution stability assay (pH 1.0 and pH 7.4, 37° C.); type: physicochemical; conditions: conversion of the prodrug to compound 1, 37° C., read-out: Aq. Stability half-life (pH 1/7.4) Hrs (converted)
Procedure: Acetonitrile Stock Solution: Prepare an Acetonitrile Stock Solution of the prodrug by dissolving 1.5-2.0 mg of accurately weighted compound in 5.0 mL of acetonitrile in 5 mL volumetric flask.
(§1) pH 7.4 Buffer Working Solution: Prepare a pH 7.4 Buffer working Solution of drug by adding 1.5 mL of the Acetonitrile Stock Solution to 3.5 mL of stability buffer in a 20 mL scintillation vial, mix very well. Using a 3 mL syringe withdraw ˜3 mL of solution and filter using the Gelman 0.45 μm syringe filter into a clean 1.5 mL LC vial. This filtered solution will be used to evaluate the prodrug degradation throughout the course of the study. Target concentration: 90-120 μg/mL (70% Aqueous: 30% Acetonitrile)
as §1, with “1.0 Acidic” for “7.4 Buffer”, “pH1.0 Working” for “pH 7.4 Buffer working”
Following the sample preparation procedure described above a single sample (n=1) is prepared for each pH condition. The samples were then placed in an HPLC autosampler maintained at 37° C. and samples were analyzed over a 24 hr period. Prodrug remaining (%) is reported relative to the initial peak area (t=0 h). In cases where a conversion to parent half-life could be calculated, a t1/2 was generated. Confirmation of the conversion to parent from the prodrug was obtained by LCMS and HPLC analysis of the final timepoint samples.
Typical LC parameters are shown below:
• HPLC System: HP1100 Series, Hewlett Packard., Heated autosampler • Analytical column. Synergi 4u Hydro C18, 4.6 mm×5.0 cm, Phenomenex • Column temperature: 40° C. • Autosampler temp: 37° C. • Flow rate: 1.0 mL/min • Injection Volume: 10 μL • Mobile Phase: A: Acetonitrile • B: 0.1% Phosphoric acid in water • Run Time: 14.0 minutes • Typical LCMS parameters are shown below: • LC-MS System: Surveyor HPLC system, ThermoFinnigan LCQ Deca XP Max (Ion trap) • Analytical column. Synergi 4u Hydro C18, 4.6 mm×5.0 cm, Phenomenex • Column temperature: 40° C. • Autosampler temp: 22° C. • Flow rate: 1.0 mL/min • Injection Volume: 5 […] • Mobile Phase: A: 95% Acetonitrile/5% 20 mM Ammonium Acetate • B: 5% Acetonitrile/95% 20 mM Ammonium Acetate • LCQ Parameters • Sheath Flow Rate: 81.64 • Aux/Sweep Flow Rate: 19.01 • Current (uA): 10.89 • Voltage (kV): 5.00 • Capillary©: 348.10 • Capillary Voltage (V): 30.44

[2] = Thermodynamic equilibrium aqueous solubility assay; type: physicochemical; conditions: aqueous solvent, thermodynamic from solid, read-out: Aq. sol., mg/mL (pH)
Procedure: Thermodynamic Equilibrium Aqueous Solubility Assay
The calibration standard is prepared by accurately weighing 0.5-0.7 mg of sample in 5 ml of methanol. If the material is not fully soluble in methanol, other solvents such as DMSO or mixed solvents will be used.
*The calibration standard is typically prepared fresh immediately before the start of the assay. A two-point calibration curve should be used to determine the concentration of the final solution. A serial dilution is performed on the standard solution.
The final saturated solution is prepared by adding 1.0 ml of the appropriate aqueous solvent to the remaining portion of material (˜1 mg/l ml) into a 1 dram vial. The solution is sonicated and vortexed for ˜30 seconds. The sample solution is placed on an orbiter that continually agitates the sample solutions for 15-24 hours at room temperature. The final saturated solution is then transferred to a 1.5 ml Eppendorf tube and centrifuged for ˜2 min. at 10000 rpms. The supernatant from the saturated solution is transferred to a glass HPLC vial without filtering since the 1.5 mL volume is insufficient to saturate a syringe filter. This sample preparation procedure nullifies the effects of non-specific binding to the filtering apparatus.
The standards and sample are analyzed by HPLC using either UV/Vis diode array or variable wavelength detection. Typical quantitation wavelengths are 210 or 254 nm; detection wavelength can be individually customized to optimize sensitivity. In addition to UV detection, mass spectrometry detection is recommended if available in order to confirm the identity of the HPLC-UV peak of interest.
Dilutions of aqueous test solutions are performed if HPLC-UV peak is beyond the linear portion of the standard calibration curve. Typical dilutions include 100 ul/900 ul (×10) or 500 ul/500 ul (2×), as required.
HPLC grade solvents are employed.

Structure (SMILES)	half-life ([1]; pH 1)	half-life ([1]; pH 7.4)	solubility thermodynamic ([2]; pH 7.4, aqueous buffer)	solubility thermodynamic ([2]; pH 6.5, aqueous buffer)
CC(C)[C@@H](NC(=O)NCC(C)(C)O)C(=O)N1CC[C@](OCOC(=O)[C@@H](C)O)(c2ccc(Cl)cc2)C(C)(C)C1 [Example 25]	16.6 h	73 h	> 0.32 mg/mL	–
CC(O)C(=O)OCO[C@]1(c2ccc(Cl)cc2)CCN(C(=O)[C@H](NC(=O)NCC(C)(C)O)C(C)C)CC1(C)C (stereo partly drawn) [Example 27]	36 h	> 22 h	–	0.5 mg/mL (≈ 899 µM)
CC(C)[C@@H](NC(=O)NCC(C)(C)O)C(=O)N1CC[C@](OCOP(=O)(O)O)(c2ccc(Cl)cc2)C(C)(C)C1 [Example 28]	1.4 h	> 22 h	–	7.1 mg/mL (≈ 12600 µM)
CC(C)[C@@H](NC(=O)NCC(C)(C)OC(=O)CCOP(=O)(O)O)C(=O)N1CC[C@](O)(c2ccc(Cl)cc2)C(C)(C)C1 [Example 29]	81 h	> 22 h	–	4.8 mg/mL (≈ 7920 µM)
CC(O)C(=O)OC(C)(C)CNC(=O)N[C@@H](C(=O)N1CC[C@](O)(c2ccc(Cl)cc2)C(C)(C)C1)C(C)C (stereo partly drawn) [Example 30]	33 h	> 22 h	–	0.31 mg/mL (≈ 589 µM)
CC(OP(=O)(O)O)C(=O)OC(C)(C)CNC(=O)N[C@@H](C(=O)N1CC[C@](O)(c2ccc(Cl)cc2)C(C)(C)C1)C(C)C (stereo partly drawn) [Example 31]	61 h	> 22 h	–	> 3.3 mg/mL
CC(C)[C@@H](NC(=O)NCC(C)(C)OC(=O)C(N)CS(=O)(=O)O)C(=O)N1CC[C@](O)(c2ccc(Cl)cc2)C(C)(C)C1 (stereo partly drawn) [Example 32]	> 22 h	> 22 h	–	1.12 mg/mL (≈ 1850 µM)
CCC(O)CC(=O)OCOC(=O)OC(C)(C)CNC(=O)N[C@@H](C(=O)N1CC[C@](O)(c2ccc(Cl)cc2)C(C)(C)C1)C(C)C (stereo partly drawn) [Example 33]	> 22 h	> 22 h	–	> 1.6 mg/mL
CC(C)[C@@H](NC(=O)NCC(C)(C)OC(=O)OCOC(=O)CS(=O)(=O)O)C(=O)N1CC[C@](O)(c2ccc(Cl)cc2)C(C)(C)C1 [Example 34]	47 h	> 22 h	–	> 0.18 mg/mL
CC(O)COC(=O)OC(C)(C)CNC(=O)N[C@@H](C(=O)N1CC[C@](O)(c2ccc(Cl)cc2)C(C)(C)C1)C(C)C (stereo partly drawn) [Example 35]	100 h	30.3 h	–	0.18 mg/mL (≈ 324 µM)
CC(COC(=O)OC(C)(C)CNC(=O)N[C@@H](C(=O)N1CC[C@](O)(c2ccc(Cl)cc2)C(C)(C)C1)C(C)C)OP(=O)(O)O (stereo partly drawn) [Example 36]	97 h	> 22 h	–	> 1.2 mg/mL
